Paper PMC4506051, “Pharmacokinetic Profiles of Active Ingredients and Its Metabolites Derived from Rikkunshito, a Ghrelin Enhancer, in Healthy Japanese Volunteers: A Cross-Over, Randomized Study” (PLoS ONE, 2015)
One block for each molecule: values may come before it.

Experiments:
[1] = Exploratory trial: plasma concentration of rikkunshito ingredients after single oral rikkunshito 7.5 g; assay type: in vivo
Method: A random sequence was generated using a computer. The safety endpoint was evaluated in all volunteers.
(§1) In the first exploratory trial, 20-mL blood samples were collected from the cutaneous vein in the subjects’ forearm via a blood sampling tube that contained heparin at 0 (preadministration), 0.5, 1, 2, 4, and 8 h after a single oral administration of rikkunshito (Lot E24652). The dose of rikkunshito used in this trial was 7.5 g/day, which is the clinical daily dose, to widely explore rikkunshito-derived ingredients that enter the blood. Along with plasma, urine samples were collected at three points: between dinner and bedtime (preadministration), between 0 and 4 h after administration, and between 4 and 8 h after administration. The blood was immediately centrifuged at 1700 ×g for 10 min to obtain plasma. Plasma and urine fractions were stored at −80°C or lower until analysis.
(§2) For quantification of synephrine, 5 µL of standard solution or methanol was added to 100 µL plasma or urine samples followed by mixing. Ten microliters of erythromycin [internal standard (IS)] solution was added to the solutions followed by mixing and centrifugation (20,400 ×g, 5 min, 4°C). The supernatants were loaded onto an Ostro 96-well plate (Waters) and centrifuged (1500 ×g, 3 min, 4°C) followed by injection into the LC–MS/MS.
(§3) For quantification of 30 ingredients other than atractylodin and synephrine, 25 µL of standard solution or methanol was added to 500 µL plasma or urine samples followed by mixing. Atractylenolide III or digoxin (IS) solution (50 μL) was added to the solutions followed by mixing. For urine, 400 µL of blank plasma was added to the solutions. Ammonium acetate solution (100 mM, 100 or 400 µL) was added to the solutions followed by mixing. For enzymatic treatment, plasma and urine samples were incubated with β-glucuronidase (100 units in 100 mM ammonium acetate) for 2 h at 37°C. A solid-phase cartridge (OASIS HLB, 30 mg/1cc, Waters) was conditioned with methanol and 10 mM ammonium acetate solution, and the samples were loaded onto the cartridge. The cartridge was washed water : methanol (9:1, v/v), and 1.5 mL of methanol and 30 µL of propylene glycol were added to the cartridge to elute the analytes. The mixtures were dried at 25°C under a stream of nitrogen gas. Furthermore, 100 μL of 10 mM ammonium acetate : methanol (8:2, v/v) was added to the dried samples followed by mixing and sonication. The solutions were filtered (0.22 µm) and followed by injection into the LC–MS/MS system. […] Those analytical conditions are summarized in S2 Table and S3 Table.

[2] = Stability of ingredients in gastric pH solution (pH 1.2, 37°C); assay type: physicochemical
Method: Rikkunshito gradually dissolved in acidic solution (pH 1.2) at 37°C, and the concentration of atractylodin after adding 0.25, 0.5, 1, and 2 h was measured by gas chromatography–mass spectrometry.

[3] = Exploratory trial: amount of rikkunshito ingredients in urine; assay type: in vivo, human; settings: mean ± S.D., n = 4; for Amount in urine, 0–4 h: 0–4 h after single oral rikkunshito 7.5 g; for Amount in urine, 4–8 h: 4–8 h after single oral rikkunshito 7.5 g; for Amount in urine, Pre: preadministration (between dinner and bedtime)
Method: as §1, §2, §3

[4] = rikkunshito in acidic solution (pH 1.2) at 37°C, 0.5 h
[5] = rikkunshito in acidic solution (pH 1.2) at 37°C, 1 h
[6] = rikkunshito in acidic solution (pH 1.2) at 37°C, 2 h

Structure (SMILES): CC(C)=CCC[C@](C)(O[C@@H]1O[C@H](CO[C@@H]2O[C@H](CO)[C@@H](O)[C@H](O)[C@H]2O)[C@@H](O)[C@H](O)[C@H]1O)[C@H]1CC[C@]2(C)[C@@H]1[C@H](O)C[C@@H]1[C@@]3(C)CC[C@H](O[C@@H]4O[C@H](CO)[C@@H](O)[C@H](O)[C@H]4O[C@@H]4O[C@H](CO)[C@@H](O)[C@H](O)[C@H]4O)C(C)(C)[C@@H]3CC[C@]12C [Ginsenoside Rb1]
concentration at 4 h ([1]; human, in vivo, po): 0.175 ± 0.118 ng/mL | Plasma concentration, 0 h ([1]; in vivo, po): BQL | Plasma concentration, 0.5 h ([1]; in vivo, po): BQL | Plasma concentration, 1 h ([1]; in vivo, po): BQL | Plasma concentration, 2 h ([1]; in vivo, po): BQL | Plasma concentration, 8 h ([1]; in vivo, po): BQL | Stability in gastric pH solution, Quantitative value ([2]; 0.5 h, pH 1.2): 297 ng/mL | Stability in gastric pH solution, Quantitative value ([2]; 1 h, pH 1.2): 202 ng/mL | Stability in gastric pH solution, Quantitative value ([2]; 2 h, pH 1.2): 86.4 ng/mL

Structure (SMILES): CC(C)=CCC[C@](C)(O[C@@H]1O[C@H](CO[C@@H]2OC[C@H](O)[C@H](O)[C@H]2O)[C@@H](O)[C@H](O)[C@H]1O)[C@H]1CC[C@]2(C)[C@@H]1[C@H](O)C[C@@H]1[C@@]3(C)CC[C@H](O[C@@H]4O[C@H](CO)[C@@H](O)[C@H](O)[C@H]4O[C@@H]4O[C@H](CO)[C@@H](O)[C@H](O)[C@H]4O)C(C)(C)[C@@H]3CC[C@]12C [Ginsenoside Rb2]
Amount in urine, 0–4 h [3]: 202 ± 202 ng | Amount in urine, 4–8 h [3]: 84.6 ± 90.1 ng | Amount in urine, Pre [3]: BQL | Stability in gastric pH solution, Quantitative value ([2]; 0.5 h, pH 1.2): 275 ng/mL | Stability in gastric pH solution, Quantitative value ([2]; 1 h, pH 1.2): 168 ng/mL | Stability in gastric pH solution, Quantitative value ([2]; 2 h, pH 1.2): 77.3 ng/mL

Structure (SMILES): CC(C)=CCC[C@](C)(O[C@@H]1O[C@H](CO[C@@H]2O[C@@H](CO)[C@H](O)[C@H]2O)[C@@H](O)[C@H](O)[C@H]1O)[C@H]1CC[C@]2(C)[C@@H]1[C@H](O)C[C@@H]1[C@@]3(C)CC[C@H](O[C@@H]4O[C@H](CO)[C@@H](O)[C@H](O)[C@H]4O[C@@H]4O[C@H](CO)[C@@H](O)[C@H](O)[C@H]4O)C(C)(C)[C@@H]3CC[C@]12C [Ginsenoside Rc]
concentration at 4 h ([1]; human, in vivo, po): 0.0303 ± 0.0605 ng/mL | Plasma concentration, 0 h ([1]; in vivo, po): BQL | Plasma concentration, 0.5 h ([1]; in vivo, po): BQL | Plasma concentration, 1 h ([1]; in vivo, po): BQL | Plasma concentration, 2 h ([1]; in vivo, po): BQL | Plasma concentration, 8 h ([1]; in vivo, po): BQL | Stability in gastric pH solution, Quantitative value ([2]; 0.5 h, pH 1.2): 188 ng/mL | Stability in gastric pH solution, Quantitative value ([2]; 1 h, pH 1.2): 115 ng/mL | Stability in gastric pH solution, Quantitative value ([2]; 2 h, pH 1.2): 39.3 ng/mL

Structure (SMILES): CC1(C)[C@@H](O[C@@H]2O[C@H](C(=O)O)[C@@H](O)[C@H](O)[C@H]2O)CC[C@]2(C)[C@H]3C(=O)C=C4[C@@H]5C[C@@](C)(C(=O)O)CC[C@]5(C)CC[C@@]4(C)[C@]3(C)CC[C@@H]12 [Glycyrrhetic acid 3-O-glucuronide, Glycyrrhetinic acid 3-O-glucuronide]
Plasma concentration, 0 h ([1]; in vivo, po): BQL | Plasma concentration, 0.5 h ([1]; in vivo, po): BQL | Plasma concentration, 1 h ([1]; in vivo, po): 0.0448 ± 0.0895 ng/mL | Plasma concentration, 2 h ([1]; in vivo, po): 0.244 ± 0.0735 ng/mL | Plasma concentration, 4 h ([1]; in vivo, po): 0.327 ± 0.0656 ng/mL | Plasma concentration, 8 h ([1]; in vivo, po): 0.247 ± 0.0622 ng/mL | Amount in urine, 0–4 h [3]: BQL | Amount in urine, 4–8 h [3]: 6.94 ± 13.9 ng | Amount in urine, Pre [3]: BQL

Structure (SMILES): CC1(C)CC[C@]2(C(=O)O)CC[C@]3(C)C(=CC[C@@H]4[C@@]5(C)CC[C@H](O)C(C)(C)[C@@H]5CC[C@]43C)[C@@H]2C1 [Oleanolic acid]
concentration at 2 h ([1]; human, in vivo, po): 0.198 ± 0.395 ng/mL | concentration at 4 h ([1]; human, in vivo, po): 0.903 ± 0.983 ng/mL | concentration at 8 h ([1]; human, in vivo, po): 1.12 ± 0.89 ng/mL | Cmax ([1]; human, in vivo, rikkunshito 7.5 g, four subjects, highest mean concentration over 0–8 h, read-out: C max in plasma (exploratory trial)): 1.12 ng/mL | Plasma concentration, 0 h ([1]; in vivo, po): BQL | Plasma concentration, 0.5 h ([1]; in vivo, po): BQL | Plasma concentration, 1 h ([1]; in vivo, po): BQL | Stability in gastric pH solution, Quantitative value [2, 4]: 3.61 ng/mL | Stability in gastric pH solution, Quantitative value [2, 5]: 3.54 ng/mL | Stability in gastric pH solution, Quantitative value [2, 6]: 3.28 ng/mL

Structure (SMILES): CC(C)=CCC[C@](C)(O)[C@H]1CC[C@]2(C)[C@@H]1[C@H](O)C[C@@H]1[C@@]3(C)CC[C@H](O)C(C)(C)[C@@H]3[C@@H](O[C@@H]3O[C@H](CO)[C@@H](O)[C@H](O)[C@H]3O[C@@H]3O[C@@H](C)[C@H](O)[C@@H](O)[C@H]3O)C[C@]12C [ginsenoside Rg2, Ginsenoside Rg2]
Stability in gastric pH solution, Quantitative value [2, 4]: 121 ng/mL | Stability in gastric pH solution, Quantitative value [2, 5]: 157 ng/mL | Stability in gastric pH solution, Quantitative value [2, 6]: 126 ng/mL

Further lines, results first:

Plasma concentration, 0 h ([1]; 0 h (preadministration), single oral rikkunshito 7.5 g, mean ± S.D., n = 4): BQL | Plasma concentration, 0.5 h ([1]; 0.5 h after single oral rikkunshito 7.5 g, mean ± S.D., n = 4): BQL | Plasma concentration, 2 h ([1]; 2 h after single oral rikkunshito 7.5 g, mean ± S.D., n = 4): BQL | Plasma concentration, 4 h ([1]; 4 h after single oral rikkunshito 7.5 g, mean ± S.D., n = 4): BQL | Plasma concentration, 8 h ([1]; 8 h after single oral rikkunshito 7.5 g, mean ± S.D., n = 4): BQL | concentration at 1 h ([1]; human, in vivo, 1 h after single oral rikkunshito 7.5 g, mean ± S.D., n = 4): 0.0308 ± 0.0615 ng/mL | Stability in gastric pH solution, Quantitative value ([2]; 0.5 h, pH 1.2): 98.5 ng/mL | Stability in gastric pH solution, Quantitative value ([2]; 1 h, pH 1.2): 68.1 ng/mL | Stability in gastric pH solution, Quantitative value ([2]; 2 h, pH 1.2): 20.3 ng/mL
Structure (SMILES): CC(C)=CCC[C@](C)(O[C@@H]1O[C@H](CO)[C@@H](O)[C@H](O)[C@H]1O)[C@H]1CC[C@]2(C)[C@@H]1[C@H](O)C[C@@H]1[C@@]3(C)CC[C@H](O[C@@H]4O[C@H](CO)[C@@H](O)[C@H](O)[C@H]4O[C@@H]4O[C@H](CO)[C@@H](O)[C@H](O)[C@H]4O)C(C)(C)[C@@H]3CC[C@]12C [Ginsenoside Rd]

Amount in urine, 0–4 h [3]: BQL | Amount in urine, 4–8 h [3]: 30.6 ± 61.2 ng | Amount in urine, Pre [3]: BQL | Stability in gastric pH solution, Quantitative value ([2]; 0.5 h, pH 1.2): 96.7 ng/mL | Stability in gastric pH solution, Quantitative value ([2]; 1 h, pH 1.2): 58.4 ng/mL | Stability in gastric pH solution, Quantitative value ([2]; 2 h, pH 1.2): 23.7 ng/mL
Structure (SMILES): CC(C)=CCC[C@](C)(O[C@@H]1O[C@H](CO)[C@@H](O)[C@H](O)[C@H]1O)[C@H]1CC[C@]2(C)[C@@H]1[C@H](O)C[C@@H]1[C@@]3(C)CC[C@H](O)C(C)(C)[C@@H]3[C@@H](O[C@@H]3O[C@H](CO)[C@@H](O)[C@H](O)[C@H]3O[C@@H]3O[C@@H](C)[C@H](O)[C@@H](O)[C@H]3O)C[C@]12C [Ginsenoside Re]

concentration at 0.5 h ([1]; human, in vivo, po): 0.00573 ± 0.0115 ng/mL | Plasma concentration, 0 h ([1]; in vivo, po): BQL | Plasma concentration, 1 h ([1]; in vivo, po): BQL | Plasma concentration, 2 h ([1]; in vivo, po): BQL | Plasma concentration, 4 h ([1]; in vivo, po): BQL | Plasma concentration, 8 h ([1]; in vivo, po): BQL | Stability in gastric pH solution, Quantitative value ([2]; 0.5 h, pH 1.2): 5.50 ng/mL | Stability in gastric pH solution, Quantitative value ([2]; 1 h, pH 1.2): 6.62 ng/mL | Stability in gastric pH solution, Quantitative value ([2]; 2 h, pH 1.2): 5.95 ng/mL
Structure (SMILES): COc1ccc(-c2cc(=O)c3c(OC)c(OC)c(OC)c(OC)c3o2)cc1 [Tangeretin]

Stability in gastric pH solution, Quantitative value [2, 4]: 8.07 ng/mL | Stability in gastric pH solution, Quantitative value [2, 5]: 7.53 ng/mL | Stability in gastric pH solution, Quantitative value [2, 6]: 7.62 ng/mL
Structure (SMILES): CCCCCCCCC[C@H](O)CC(=O)CCc1ccc(O)c(OC)c1 [[10]-gingerol, [10]-Gingerol]
